Legend:
HT-29 = assay: Cytotoxicity against human HT-29 cells assessed as inhibition of cell proliferation incubated for 48 hrs by MTT assay; assay type: functional, cell-based; conditions: HT-29, 48 h
RKO = assay: Cytotoxicity against human RKO cells assessed as inhibition of cell proliferation incubated for 48 hrs by MTT assay; assay type: functional, cell-based
NCI-H1299 = assay: Cytotoxicity against human NCI-H1299 cells assessed as inhibition of cell proliferation incubated for 48 hrs by MTT assay; assay type: functional, cell-based; conditions: NCI-H1299, 48 h
PC-9 = assay: Cytotoxicity against human PC-9 cells assessed as inhibition of cell proliferation incubated for 48 hrs by MTT assay; assay type: functional, cell-based; conditions: PC-9, 48 h
BT-549 [1] = assay: Cytotoxicity against human BT-549 cells assessed as inhibition of cell proliferation incubated for 48 hrs by MTT assay; assay type: functional, cell-based; conditions: BT-549, 48 h
BT-549 [2] = assay: Potency index, ratio of cisplatin IC50 to test compound IC50 for cytotoxicity against human BT-549 cells; assay type: functional
[3] = Cytotoxicity against human HMLE cells assessed as inhibition of cell proliferation incubated for 48 hrs by MTT assay; assay type: toxicity, cell-based
[4] = Selectivity ratio of IC50 for cytotoxicity against human HMLE cells to IC50 for cytotoxicity against human BT-549 cells; assay type: toxicity, cell-based; conditions: HMLE cells and BT-549 cells, read-out: Ratio IC50
BT-549 [5] = assay: Induction of cell cycle arrest in human BT-549 cells assessed as accumulation at G0/G1 phase at 5 uM incubated for 24 hrs by propidium iodide staining based flow cytometry (reference value: 22.97%); assay type: functional
BT-549 [6] = assay: Induction of cell cycle arrest in human BT-549 cells assessed as accumulation at S phase at 5 uM incubated for 24 hrs by propidium iodide staining based flow cytometry (reference value: 50.87%); assay type: functional
BT-549 [7] = assay: Induction of cell cycle arrest in human BT-549 cells assessed as accumulation at G2/M phase at 5 uM incubated for 24 hrs by propidium iodide staining based flow cytometry (reference value: 22.59%); assay type: functional

Structure (SMILES): CC[C@H](C)[C@H]1NC(=O)[C@@H](CC(C)C)NC(=O)[C@@H](CC(C)C)N(C)C(=O)[C@@H]2CCCN2C(=O)[C@H](CC(C)C)NC(=O)[C@H](Cc2ccccc2)OC(=O)[C@@H]2CCCN2C1=O
- IC50 (HT-29): 2.5 µM
- IC50 (RKO): 9.5 µM
- IC50 (NCI-H1299): 2.5 µM
- IC50 (PC-9): 2.5 µM
- IC50 (BT-549 [1]): 2.5 µM
- Ratio IC50 (BT-549 [2]): 3.4
- IC50 at 48 h [3]: 7.3 µM
- selectivity ratio [4]: 3
- Activity (BT-549 [5]): 41.84%
- Activity (BT-549 [6]): 32.49%
- Activity (BT-549 [7]): 18.34%
